# Data as given in patent US11123350B2, “Metal delivery agents and therapeutic uses of the same” (THE UNIVERSITY OF MELBOURNE, priority 2006, dated 2021).
# Tests used:
# G93A-SOD1 mice = settings: other reported pharmacological treatments (literature); cited from earlier work
# A30P cells = test: Dopamine induced cell death, A30P cells (MTT); assay type: cell-based
SMILES,Increased Life Span (G93A-SOD1 mice),% recovery (A30P cells; Dopamine 500 μm + complex 0.01 μM) [%],% recovery (A30P cells; Dopamine 500 μm + complex 0.1 μM) [%]
O=C1NC(=O)C(c2ccc(-c3ccccc3)cc2)(N2CCN(c3ccc([N+](=O)[O-])cc3)CC2)C(=O)N1 [Ro 28-2653],13 days,,
CC(=O)Oc1ccccc1C(=O)O [Lysine Acetyl salicylate],No effect,,
NCC1(CC(=O)O)CCCCC1 [Gabapentin],No effect,,
"CN=C([S-])N/N=C(C)/C(C)=N/NC([S-])=NC.[64Cu+2] [Complex A2, copper(II)diacetylbis(N(4)-methylthiosemicarbazone)]",,105.90,97.77
